Experimental data: patent US6770778B2, “N-(4-substituted phenyl)-anthranilic acid hydroxamate esters” (Pfizer Inc, priority 2002, dated 2004)

Columns and labels:
MEK = assay: Cellular assay for measuring MEK inhibition (inhibition of ERK phosphorylation in C26 cells); type: cell-based; details: murine colon 26 (C26) carcinoma cells, 1 hour at 37° C., Western blot of dually phosphorylated ERK1 and ERK2
Procedure: The evaluation of the compounds as MEK inhibitors is performed in an assay that measures their ability to inhibit phosphorylation of MAP kinase (ERK) in murine colon 26 (C26) carcinoma cells. Since ERK1 and ERK2 represent the only known substrates for MEK, measurement of inhibition of ERK phosphorylation in cells provides direct readout of cellular MEK inhibition by the compounds of the invention. Briefly, the assay involves treating exponentially growing C26 cells with varying concentrations of the test compound (or vehicle control) for 1 hour at 37° C. Cells are then rinsed free of compound/vehicle and lysed in a solution containing 70 mM NaCl, 50 mM glycerol phosphate, 10 mM HEPES, pH 7.4, 1% Triton X-100, 1 mM Na3VO4, 100 μM PMSF, 10 μM leupeptin, and 10 μM pepstatin. Supernatants are then subjected to gel electrophoresis and Western blotting using a primary antibody recognizing dually phosphorylated ERK1 and ERK2. To evaluate total MAPK levels, blots were subsequently ‘stripped’ and re-probed with a 1:1 mixture of polyclonal antibodies recognizing unphosphorylated ERK1 and ERK2.
The inhibition data generated by the above protocol is disclosed in Table 1. If several concentrations of inhibitor were tested, IC50 values (the concentration which gives 50% inhibition) were determined graphically from the dose response curve for % inhibition. Otherwise, percent inhibitions at measured concentrations are reported.

SMILES: COC(=O)c1ccc(Nc2c(C(=O)NOCCO)ccc(F)c2F)cc1 [Example 1, Methyl 4-[[2.3-difluoro-6-[[(2-hydroxyethoxy)amino]carbonyl]phenyl]-amino]benzoate]
- melting point: 158 to 160 °C
- IC50 (MEK): > 1000 nM

SMILES: O=C(O)c1ccc(Nc2c(C(=O)NOCCO)ccc(F)c2F)cc1 [Example 2, 4-[[2,3-Difluoro-6-[[(2-hydroxyethoxy)amino]carbonyl]phenyl]amino]-benzoic acid]
- melting point: 180 to 183 °C
- IC50 (MEK): 73 nM

SMILES: COC(=O)c1ccc(Nc2c(C(=O)NOCCO)ccc(F)c2F)c(F)c1 [Example 3, Methyl 4-(2,3-difluoro-6-{[(2-hydroxyethoxy)amino]carbonyl}anilino)-3-fluorobenzoate]
- melting point: 162 to 165 °C
- IC50 (MEK): 27 nM

SMILES: O=C(O)c1ccc(Nc2c(C(=O)NOCCO)ccc(F)c2F)c(F)c1 [Example 4, 4-(2,3-Difluoro-6-{[(2-hydroxyethoxy)amino]carbonyl}anilino)-3-fluorobenzoic acid]
- melting point: 196 to 200 °C
- IC50 (MEK): > 1000 nM

SMILES: COCC#Cc1ccc(Nc2c(C(=O)NOCCO)ccc(F)c2F)c(F)c1 [Example 5, 3,4-Difluoro-2-[[2-fluoro-4-(3-methoxy-1-propynyl)phenyl]amino]-N-(2-hydroxyethoxy)benzamide]
- melting point: 121 to 123 °C
- IC50 (MEK): > 1000 nM

SMILES: CC(=O)c1ccc(Nc2c(C(=O)NOCCO)ccc(F)c2F)c(Cl)c1 [Example 6, 2-(4-Acetyl-2-chloro-phenylamino)-3,4-difluoro-N-(2-hydroxy-ethoxy)-benzamide]
- melting point: 161.5 to 162.5 °C

SMILES: CNC(=O)c1ccc(Nc2c(C(=O)NOCCO)ccc(F)c2F)c(F)c1 [Example 7, 2-{2-fluoro-4-[(methylamino)carbonyl]anilino}-3,4-difluoro-N-(2-hydroxyethoxy)benzamide]
- melting point: 197 to 200 °C
- IC50 (MEK): > 10000 nM
